The values that follow come from ChEMBL document CHEMBL5370607 (J Med Chem, 2023).

One experiment relates to Rattus norvegicus. Nature of the experiment: Antialzheimer activity against scopolamine-induced cognitive impairment in Sprague-Dawley rat assessed as reduction in short-term memory deficits at 1 to 3 mg/kg, ip administered for 30 mins followed by scopolamine induction measured after 30 mins by NOR test. Type of experiment: functional, organism-based. As to conditions: dose 1-3 mg/kg, time 60.0 min.

Experiment [1] concerns the target T1, Amine oxidase [flavin-containing] B (Homo sapiens, UniProt P27338).
T1 sequence (P27338 whole entry): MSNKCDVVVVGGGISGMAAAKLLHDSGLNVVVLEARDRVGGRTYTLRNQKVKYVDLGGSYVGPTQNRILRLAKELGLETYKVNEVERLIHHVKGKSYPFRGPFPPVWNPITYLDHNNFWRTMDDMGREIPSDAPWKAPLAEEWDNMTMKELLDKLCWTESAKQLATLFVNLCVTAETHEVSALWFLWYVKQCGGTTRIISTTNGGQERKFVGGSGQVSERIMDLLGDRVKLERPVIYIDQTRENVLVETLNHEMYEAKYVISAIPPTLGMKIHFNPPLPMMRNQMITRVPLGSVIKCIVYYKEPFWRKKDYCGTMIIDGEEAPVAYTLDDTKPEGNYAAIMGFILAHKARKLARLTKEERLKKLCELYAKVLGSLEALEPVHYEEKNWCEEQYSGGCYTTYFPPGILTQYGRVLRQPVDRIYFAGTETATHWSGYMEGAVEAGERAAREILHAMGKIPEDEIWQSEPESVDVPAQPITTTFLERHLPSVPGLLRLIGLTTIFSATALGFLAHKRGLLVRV
As to conditions: 0.5 h, time 30 min.

The source made the active and inactive calls. The rule behind the calls is not given here.

In the case of `COc1cc2c(cc1OC)C(=O)C(CC1CCN(Cc3ccccc3)CC1)C2` (stereo not drawn), the outcome with Rattus norvegicus was Active.

For the molecule `Clc1cccc(CNc2cc(N3CCNCC3)nc3ccccc23)c1`, the inhibition at 1 µM in experiment [1] was 7%.

On to `Clc1cccc(CNc2ccnc(N3CCNCC3)c2)c1`, for which, in experiment [1], testing at 1 µM gave an inhibition of 3%.

Broadly, the inhibition is how much of the control response was suppressed.
